Results from PMC7395068, “The evolution of strategies to minimise the risk of human drug-induced liver injury (DILI) in drug discovery and development” (Archives of Toxicology, 2020).
Where two headings read alike, the source gives them in different places. Values belong to the compound of their own block, whether it stands above or below them.

Tests used:
[1] = Plasma free fraction (fu) and unbound Cmax (Cmax,u); type: in vitro ADME, human
[2] = cited from earlier work
[3] = tested on: HepG2 cells; settings: cited from earlier work
[4] = tested on: HepG2 cells; settings: cited from earlier work; remark: listed apart in the source
[5] = tested on: human hepatocytes; settings: cited from earlier work
[6] = tested on: THLE or HepG2 cells, isolated mitochondria, BSEP; settings: cited from earlier work
[7] = tested on: PHH; settings: cited from earlier work
[8] = tested on: hLiMTs; settings: cited from earlier work
[9] = tested on: PHH spheroids; settings: cited from earlier work
[10] = cited from earlier work; remark: listed apart in the source
[11] = plasma free fraction; cited from earlier work
[12] = cited from earlier work; remark: listed apart in the source
[13] = tested on: THLE-Null and THLE-3A4 cells; settings: cited from earlier work
[14] = tested on: HepG2 cells, primary human hepatocytes; settings: cited from earlier work
[15] = tested on: Upcyte human hepatocytes; settings: cited from earlier work
[16] = cited from earlier work; remark: listed apart in the source
[17] = tested on: rBsep; settings: cited from earlier work
[18] = tested on: hLiMTs; assay: Combined HCI (HCS) and cellular ATP 3D assay in hLiMTs; settings: for AC50 / minimal effective concentration: Homo sapiens
[19] = tested on: HepaRG spheroids; assay: Combined HCI (HCS) and cellular ATP 3D assay in HepaRG spheroids; settings: for AC50 / minimal effective concentration: Homo sapiens
[20] = tested on: hLiMTs
[21] = tested on: HepaRG spheroids
[22] = tested on: primary human hepatocytes, NIH3T3 fibroblasts, BSEP, CYP3A4; settings: cited from earlier work
[23] = tested on: HepG2 C3A spheroid, BSEP, Glu/Gal in HepG2 cells, bioactivation; settings: cited from earlier work
[24] = Modeled in vitro assays (cytotoxicity, mitochondrial dysfunction, BSEP), ref Aleo et al. 2019
[25] = In vitro Assay, ref Proctor 2017
[26] = In vitro Assay, ref Gustafsson 2014
[27] = In vitro Assay, ref Dawson 2012
[28] = Microtissue model structural based (HCI), combined HCS and ATP, MEC < 25 × Cmax.tot cut-off
[29] = HepaRG, read-out: ATP endpoint AC50
[30] = HepaRG, read-out: ATP endpoint MEC
[31] = HepaRG, read-out: HCS endpoint AC50
[32] = HepaRG, read-out: HCS endpoint MEC

Human plasma Cmax,u ([1]; unbound plasma Cmax): 5048 nM
hLiMTs <25x Avg Cmax ATP ([18]; hLiMTs, ATP endpoint, cut-off <25x Avg Cmax): +ve
hLiMTs <100x Avg Cmaxu ATP ([18]; hLiMTs, ATP endpoint, cut-off <100x Avg Cmaxu): +ve (<100x Avg Cmaxu)
hLiMTs <25x Avg Cmax HCS ([18]; hLiMTs, HCS endpoints, cut-off <25x Avg Cmax): +ve
hLiMTs <100x Avg Cmaxu HCS ([18]; hLiMTs, HCS endpoints, cut-off <100x Avg Cmaxu): +ve (<100x Avg Cmaxu)
hLiMTs <25x Avg Cmax All ([18]; hLiMTs, all endpoints (ATP and HCS), cut-off <25x Avg Cmax): +ve
hLiMTs Cmax max All ([18]; hLiMTs, all endpoints, Cmax max used): +ve
hLiMTs Cmax min All ([18]; hLiMTs, all endpoints, Cmax min used): +ve
hLiMTs <10 uM All ([18]; hLiMTs, all endpoints, cut-off <10 uM): +ve (<10 uM)
hLiMTs <100x Avg Cmaxu All ([18]; hLiMTs, all endpoints, cut-off <100x Avg Cmaxu): +ve (<100x Avg Cmaxu)
HepaRG <25x Avg Cmax ATP ([19]; HepaRG, ATP endpoint, cut-off <25x Avg Cmax): +ve
HepaRG <100x Avg Cmaxu ATP ([19]; HepaRG, ATP endpoint, cut-off <100x Avg Cmaxu): +ve (<100x Avg Cmaxu)
HepaRG <25x Avg Cmax HCS ([19]; HepaRG, HCS endpoints, cut-off <25x Avg Cmax): +ve
HepaRG <100x Avg Cmaxu HCS ([19]; HepaRG, HCS endpoints, cut-off <100x Avg Cmaxu): +ve (<100x Avg Cmaxu)
HepaRG <25x Avg Cmax All ([19]; HepaRG, all endpoints (ATP and HCS), cut-off <25x Avg Cmax): +ve
HepaRG Cmax max All ([19]; HepaRG, all endpoints, Cmax max used): +ve
HepaRG Cmax min All ([19]; HepaRG, all endpoints, Cmax min used): +ve
HepaRG <10 uM All ([19]; HepaRG, all endpoints, cut-off <10 uM): +ve (<10 uM)
HepaRG <100x Avg Cmaxu All ([19]; HepaRG, all endpoints, cut-off <100x Avg Cmaxu): +ve (<100x Avg Cmaxu)
SMILES: Cn1cnc([N+](=O)[O-])c1Sc1ncnc2nc[nH]c12 [azathioprine]
DILI severity category (Chen et al. [2016]) ([2]; LTKB DILIrank category, ref Chen et al. 2016): Most
DILI severity category (Chen 2016) ([2]; human DILI classification, LTKB DILIrank, ref Chen et al. 2016): Most
DILI severity category ([2]; human DILI severity, ref Chen et al.): Most
DILI +VE (5-8), DILI -VE (-4) ([2]; ref Chen 2016): +VE
DILI severity category ([2]; ref Chen 2016): vMost-DILI-Concern
Structural based (HCI) ([3]; In vitro Assay, ref O'Brien 2006): +VE
DILI in vitro assay prediction, O'Brien (2006) ([3]; Structural based (HCI), HepG2, ref O'Brien et al. 2006): +VE (lowest HCI endpoint IC50 (or in the absence of dose–response < 100 µM) < 30 × total human plasma exposure levels (Cmax.tot))
Structural based (HCI) ([4]; In vitro Assay, ref Tolosa 2012): +VE
DILI in vitro assay prediction, Tolosa (2012) ([4]; Structural based (HCI), HepG2, ref Tolosa et al. 2012): +VE
Structural based (HCI) ([5]; In vitro Assay, ref Xu 2008): +VE
DILI in vitro assay prediction, Xu (2008) ([5]; Structural based (HCI), human hepatocytes, ref Xu et al. 2008): +VE
Partition Hybrid HRM Score ([6]; In vitro Assay, ref Aleo 2019): -VE
Ro2 Hybrid HRM Score ([6]; In vitro Assay, ref Aleo 2019): +VE
Partition Hybrid HRM Score ≥4, Aleo (2019) [6, 24]: -VE
Partition Hybrid HRM Score ≥8, Aleo (2019) [6, 24]: -VE
Rule of Two hybrid HRM Score ≥3, Aleo (2019) [6, 24]: +VE (Rule of Two hybrid HRM Score ≥3)
Rule of Two hybrid HRM Score ≥8, Aleo (2019) [6, 24]: -VE
PHH/100xCmax, Proctor (2017) ([7]; 2D PHH, ATP, IC50 < 100 × Cmax.tot, ref Proctor et al. 2017): -VE
PHH/100uM, Proctor (2017) ([7]; 2D PHH, ATP, IC50 threshold 100 µM, ref Proctor et al. 2017): -VE
PHH ATP <100uM [7, 25]: -VE
hLiMTs ATP <100uM [8, 25]: +VE (IC50 threshold of 100 µM)
hLiMTs/100xCmax, Proctor (2017) ([8]; hLiMTs, ATP, IC50 < 100 × Cmax.tot, ref Proctor et al. 2017): +VE (IC50 < 100 × Cmax.tot)
hLiMTs/100uM, Proctor (2017) ([8]; hLiMTs, ATP, IC50 threshold 100 µM, ref Proctor et al. 2017): +VE (IC50 threshold of 100 µM)
hLiMTs ATP <20 x Cmax ([9]; In vitro Assay, ref Vorrink 2018): +VE (IC20 < 20 × Cmax.tot cut-off)
DILI in vitro assay prediction, Vorrink (2018) ([9]; PHH spheroids, ATP, 14 days, IC20 < 20 × Cmax.tot, ref Vorrink et al. 2018): +VE (IC20 < 20 × Cmax.tot cut-off)
Cmax ([10]; read-out: Human plasma Cmax, total plasma Cmax.tot, median of 9 literature references): 7210 nM
fu [11]: 0.700
Assigned DILI category ([12]; Chen et al. 2016 or literature alignment, ref Chen et al. 2016): 3
In vivo DILI ([12]; […]): +VE
In vivo DILI ([12]; ref Aleo 2019): +VE
In vivo DILI ([12]; ref Dawson 2012): +VE
In vivo DILI ([12]; ref Garside 2014): +VE
In vivo DILI ([12]; ref Gustafsson 2014): +VE
In vivo DILI ([12]; ref O'Brien 2006): +VE
In vivo DILI ([12]; ref Proctor 2017): +VE
In vivo DILI ([12]; ref Tolosa 2012): +VE
In vivo DILI ([12]; ref Tolosa 2019): +VE
In vivo DILI ([12]; ref Vorrink 2018): +VE
In vivo DILI ([12]; ref Xu 2008): +VE
THLE-Null [13, 26]: -VE
THLE-Null/3A4 [13, 26]: -VE
Cluster 1-6 +VE Assay ([14]; In vitro Assay, ref Garside 2014): -VE
Upcytes multi donor assay 14day data ([15]; In vitro Assay, ref Tolosa 2019): +VE
DILI Score (FDA) (1-8) ([16]; ref Chen 2011): 3
Inhibition of rBsep cutoff<1& cmax u>.2 [17, 27]: -VE
Inhibition of rBsep cutoff<3 [17, 27]: -VE
AC50 ([18]; read-out: ATP endpoint AC50): 1.18 µM
minimal effective concentration ([18]; read-out: ATP endpoint MEC): 0.361 µM
AC50 ([18]; read-out: HCS endpoint AC50): 41.6 µM
minimal effective concentration ([18]; read-out: HCS endpoint MEC): 1.58 µM
DILI prediction hLiMTs (HCS-MEC) [18, 28]: +VE (MEC < 25 × Cmax.tot cut-off)
AC50 [19, 29]: 0.48 µM
minimal effective concentration [19, 30]: 0.278 µM
AC50 [19, 31]: 2 µM
minimal effective concentration [19, 32]: 0.0805 µM
DILI prediction HepaRG spheroids (HCS-MEC) [19, 28]: +VE (MEC < 25 × Cmax.tot cut-off)

SMILES: Nc1c2c(nc3ccccc13)CCCC2 [tacrine, reference compound]
Human plasma Cmax,u ([1]; human): 36 nM
hLiMTs <10 uM All [20]: -ve
hLiMTs <100x Avg Cmaxu ATP ([20]; human): -ve
hLiMTs <100x Avg Cmaxu All ([20]; human): -ve
hLiMTs <100x Avg Cmaxu HCS ([20]; human): -ve
hLiMTs Cmax max All ([20]; human): -ve
hLiMTs Cmax min All ([20]; human): -ve
HepaRG <10 uM All [21]: -ve
HepaRG <100x Avg Cmaxu ATP ([21]; human): -ve
HepaRG <100x Avg Cmaxu All ([21]; human): -ve
HepaRG <100x Avg Cmaxu HCS ([21]; human): -ve
HepaRG Cmax max All ([21]; human): -ve
HepaRG Cmax min All ([21]; human): -ve
Cellular toxicity (3T3 cells) [22]: -VE
Combined Assay [22]: +VE
DILI in vitro assay prediction, Schadt (2015) [22]: +VE
GSH adduct HML [22]: +VE
Hepatocyte cellular toxicity [22]: -VE
MitoTox 3T3 [22]: -VE
TDI CYP3A4 [22]: -VE
hBSEP inhibition [22]: -VE
Structural based (HCI) [3]: -VE
DILI in vitro assay prediction, Xu (2008) [5]: -VE
Structural based (HCI) [5]: -VE
Ro2 Hybrid HRM Score [6]: +VE
Rule of Two hybrid HRM Score ≥8, Aleo (2019) [6]: -VE
PHH ATP <100uM [7]: -VE
PHH/100uM, Proctor (2017) [7]: -VE
DILI in vitro assay prediction, Vorrink (2018) [9]: -VE
Bayesian Machine Learning [23]: +VE
Bayesian Machine Learning DILI prediction, Williams (2019) [23]: +VE
Cmax ([10]; human, in vivo): 80 nM
Assigned DILI category ([12]; in vivo): 2
THLE-Null [13]: -VE
Cluster 1-6 +VE Assay [14]: +VE
Upcytes multi donor assay 14day data [15]: +VE
DILI Score (FDA) (1-8) ([16]; in vivo): 7
Inhibition of rBsep cutoff<3 [17, 27]: -VE
Inhibition of rBsep cutoff<1& cmax u>.2 [17]: -VE
AC50 ([18]; read-out: ATP endpoint AC50): 41.8 µM
minimal effective concentration ([18]; read-out: ATP endpoint MEC): 44.7 µM
AC50 ([18]; read-out: HCS endpoint AC50): 52.4 µM
minimal effective concentration ([18]; read-out: HCS endpoint MEC): 38.5 µM
AC50 [19, 29]: 51.8 µM
minimal effective concentration [19, 30]: 45.3 µM
AC50 [19, 31]: 65.6 µM
minimal effective concentration [19, 32]: 48.7 µM
